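Test compounds were applied to cells in 96-well plates for 48 hours at 5 doses. GI50 marks 50% less growth.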 The source made the active and inactive calls. Rule as the data show it: active = GI50 up to about 1.1 µM and inactive = higher.

Some test systems named below: Malme-3M; SNB-19; HL-60; COLO 205; M14; SK-MEL-5; HCT-15; RXF 393; MOLT-4; RPMI-8226; CCRF-CEM; OVCAR-8; SN12C; OVCAR-5; TK-10; NCI-H460; HOP-92.
What all share (assay): NCI anticancer screen, dose series, 48 h

Regarding `O=C1CCC2(c3ccc(F)cc3)Nc3cc(Cl)ccc3N12` (stereo not drawn), the GI50 with Malme-3M is 59.7 µM (inactive); in the experiment with SNB-19, > 100 µM (inactive); with HL-60, 63.4 µM (inactive); in the experiment on COLO 205, > 100 µM (inactive); in the experiment with M14 it was > 100 µM (inactive); with SK-MEL-5 it was 45.5 µM (inactive). Also, the GI50 in the experiment on HCT-15 was > 100 µM; in the experiment on RXF 393 it was 88.9 µM (inactive); with MOLT-4, 37.2 µM (inactive); in the experiment with RPMI-8226 it was 76.7 µM (inactive); in the experiment on CCRF-CEM, > 100 µM (inactive); in the experiment with OVCAR-8 it was > 100 µM (inactive). In addition, in the experiment with SN12C, the GI50 is > 100 µM (inactive).

With `COC(=O)N/N=C(/CCN1CCCC1)CC(c1ccccc1)c1c(O)c2ccccc2oc1=O` (stereo not drawn), the GI50 in the experiment on Malme-3M, in the experiment with SNB-19, with HL-60, in the experiment with COLO 205, in the experiment on M14 and in the experiment with SK-MEL-5 was > 100 µM (inactive) in each case. Besides, the GI50 in the experiment on HCT-15 was > 100 µM; with RXF 393, > 100 µM (inactive); in the experiment on OVCAR-5 it was > 100 µM (inactive); with MOLT-4, > 100 µM (inactive); in the experiment on RPMI-8226, > 100 µM (inactive); in the experiment on CCRF-CEM, > 100 µM (inactive). The GI50 with TK-10, with OVCAR-8, in the experiment with SN12C and in the experiment with NCI-H460 was > 100 µM (inactive) in each case.

On to `O=c1cc2n(c(=O)[nH]1)C1OC(C(O)C1O)[C@H]2CCO` (stereo partly drawn), for which the GI50 with Malme-3M, with SNB-19, with HL-60, with COLO 205, in the experiment on HOP-92 and in the experiment with SK-MEL-5 was > 100 µM (inactive) throughout. The GI50 in the experiment with RXF 393, in the experiment on OVCAR-5, in the experiment with MOLT-4, with CCRF-CEM, with TK-10 and with OVCAR-8 was > 100 µM (inactive) throughout. The GI50 with SN12C and in the experiment with NCI-H460 was > 100 µM (inactive) throughout.

For `O=C(CC1(O)C(=O)Nc2c(Cl)ccc(Cl)c21)c1ccc(Cl)cc1Cl` (stereo not drawn), the GI50 was 20.4 µM (inactive) in the experiment on Malme-3M; 32.2 µM (inactive) in the experiment with SNB-19; 17.6 µM (inactive) in the experiment on COLO 205; 21 µM (inactive) with HOP-92; 13.2 µM (inactive) in the experiment on M14; 30.6 µM with HCT-15. The GI50 in the experiment with RXF 393 is 25 µM (inactive); with OVCAR-5 it was 16.6 µM (inactive); in the experiment with RPMI-8226, 19.5 µM (inactive); in the experiment with TK-10, 50.1 µM (inactive); in the experiment on OVCAR-8, 20.7 µM (inactive); with SN12C it was 16.6 µM (inactive). For the same compound, the GI50 with NCI-H460 is 20.5 µM (inactive).

Regarding `CCC1CCC2CCCC(C)N12` (stereo not drawn), the GI50 with Malme-3M, in the experiment with SNB-19, with HL-60, in the experiment with COLO 205, with HOP-92 and in the experiment with M14 was > 100 µM (inactive) each time. The GI50 was > 100 µM in the experiment on HCT-15; > 100 µM (inactive) in the experiment with MOLT-4; > 100 µM (inactive) with RPMI-8226; > 100 µM (inactive) in the experiment with CCRF-CEM; > 100 µM (inactive) in the experiment with TK-10; > 100 µM (inactive) in the experiment with OVCAR-8. In the experiment on SN12C, the GI50 is > 100 µM (inactive).

Take `O=C(/N=C(/Nc1ccccc1)SCCS/C(=N\C(=O)c1ccccc1)Nc1ccccc1)c1ccccc1`: the GI50 is > 100 µM (inactive) in the experiment with Malme-3M; 56.4 µM (inactive) in the experiment on SNB-19; > 100 µM (inactive) in the experiment on COLO 205; 16.8 µM (inactive) in the experiment on HOP-92; 60.5 µM (inactive) with M14; 48.3 µM (inactive) with SK-MEL-5. For the same compound, the GI50 is 54.8 µM with HCT-15; 29.6 µM (inactive) with RXF 393; > 100 µM (inactive) in the experiment on OVCAR-5; 38.7 µM (inactive) in the experiment on MOLT-4; 48.2 µM (inactive) in the experiment with RPMI-8226; 64.6 µM (inactive) in the experiment with CCRF-CEM. Besides, the GI50 with TK-10 was > 100 µM (inactive); with OVCAR-8 it was 71.1 µM (inactive); in the experiment on SN12C, 63.1 µM (inactive); in the experiment with NCI-H460, 44.3 µM (inactive).

As to `O=C(c1ccccc1)[C@H]1Nc2ccc(Cl)cc2[C@H]2c3ccccc3O[C@H]21`, the GI50 in the experiment with Malme-3M was 15.8 µM (inactive); in the experiment with SNB-19, 15.7 µM (inactive); with COLO 205, 18.7 µM (inactive); in the experiment with M14, 16.3 µM (inactive); in the experiment on SK-MEL-5, 13.2 µM (inactive); in the experiment with HCT-15, 14.4 µM. Besides, the GI50 is 10.1 µM (inactive) with RXF 393; 16 µM (inactive) in the experiment with OVCAR-5; 4.82 µM (inactive) with MOLT-4; 27 µM (inactive) in the experiment with RPMI-8226; 16.7 µM (inactive) in the experiment with TK-10; 16.4 µM (inactive) in the experiment with OVCAR-8. Moreover, the values for the GI50 with SN12C and in the experiment on NCI-H460 were 14.1 µM (inactive) and 16.5 µM (inactive), respectively.

For the compound `CC(=O)O[C@H]1CC2C=CC3C(CCC31)O2` (stereo partly drawn), the GI50 in the experiment with Malme-3M is > 100 µM (inactive); in the experiment on SNB-19 it was > 100 µM (inactive); in the experiment with HL-60, 80 µM (inactive); in the experiment with COLO 205, > 100 µM (inactive); in the experiment on M14, > 100 µM (inactive); with HCT-15 it was > 100 µM. The GI50 with RXF 393, with MOLT-4, in the experiment with CCRF-CEM, in the experiment with TK-10, in the experiment with OVCAR-8 and in the experiment with SN12C was > 100 µM (inactive) throughout. For the same compound, in the experiment on NCI-H460, the GI50 was > 100 µM (inactive).

`N#CC(/C(=N/NC(N)=S)C(=O)Nc1cccc(Cl)c1)c1ccccc1` (stereo not drawn): the GI50 in the experiment with Malme-3M, with SNB-19, in the experiment on HL-60, in the experiment on COLO 205, in the experiment on HOP-92 and in the experiment on M14 was > 100 µM (inactive) throughout. Besides, the GI50 was > 100 µM (inactive) with SK-MEL-5; > 100 µM with HCT-15; > 100 µM (inactive) in the experiment on OVCAR-5; > 100 µM (inactive) in the experiment on MOLT-4; > 100 µM (inactive) with RPMI-8226; > 100 µM (inactive) in the experiment with CCRF-CEM. The GI50 in the experiment on TK-10, in the experiment with OVCAR-8, in the experiment on SN12C and in the experiment on NCI-H460 was > 100 µM (inactive) in each case.

On to `O=C1NC2(CCCC2)/C(=N\O)C12CCCC2`, for which the GI50 with Malme-3M, with SNB-19, in the experiment on HL-60, in the experiment on COLO 205, in the experiment on HOP-92 and in the experiment with M14 was > 100 µM (inactive) each time. For the same compound, the GI50 was > 100 µM (inactive) in the experiment with SK-MEL-5; > 100 µM with HCT-15; > 100 µM (inactive) with RXF 393; > 100 µM (inactive) with OVCAR-5; > 100 µM (inactive) in the experiment with MOLT-4; > 100 µM (inactive) with CCRF-CEM. In addition, the GI50 in the experiment on TK-10, in the experiment with OVCAR-8, in the experiment on SN12C and in the experiment on NCI-H460 was > 100 µM (inactive) throughout.

With `CCCCCCCCc1cc2c(O)c(c1)Cc1cc(CCCCCCCC)cc(c1O)Cc1cc(CCCCCCCC)cc(c1O)Cc1cc(CCCCCCCC)cc(c1O)Cc1cc(CCCCCCCC)cc(c1O)Cc1cc(CCCCCCCC)cc(c1O)C2`, the GI50 in the experiment with Malme-3M was > 100 µM (inactive); in the experiment with SNB-19 it was > 100 µM (inactive); in the experiment with HL-60 it was > 100 µM (inactive); in the experiment with COLO 205, > 100 µM (inactive); with HOP-92, > 100 µM (inactive); with M14, > 10 µM (inactive). In addition, the GI50 with HCT-15 is > 100 µM; with OVCAR-5, > 100 µM (inactive); in the experiment on MOLT-4, > 100 µM (inactive); in the experiment with CCRF-CEM, > 100 µM (inactive); in the experiment with TK-10, > 100 µM (inactive); with OVCAR-8, > 100 µM (inactive). The GI50 in the experiment with SN12C and in the experiment on NCI-H460 was > 100 µM (inactive) in each case.

With `CC(C)C1C(=O)NC(CO)Cc2c[nH]c3c(C(c4c[nH]c5ccccc45)C(O)CO)ccc(c23)N1C` (stereo not drawn), the GI50 with SNB-19 is > 100 µM (inactive); in the experiment on HL-60 it was 5.11 µM (inactive); in the experiment with COLO 205, 4.79 µM (inactive); with HOP-92, 0.612 µM (active); with M14 it was > 100 µM (inactive); with SK-MEL-5, 16.4 µM (inactive). In addition, the GI50 in the experiment with RXF 393 is > 100 µM (inactive); in the experiment on MOLT-4, 49 µM (inactive); with RPMI-8226, > 100 µM (inactive); in the experiment on CCRF-CEM, 30.1 µM (inactive); with TK-10, 36.3 µM (inactive); with OVCAR-8 it was > 100 µM (inactive). In addition, the GI50 is > 100 µM (inactive) with SN12C and 5.02 µM (inactive) in the experiment on NCI-H460.

Consider `O=c1/c(=C/c2ccc(Cl)cc2Cl)sc2nc3ccccc3n12`, for which the GI50 in the experiment with Malme-3M, with SNB-19, in the experiment on HL-60, in the experiment with COLO 205, in the experiment with HOP-92 and in the experiment on M14 was > 100 µM (inactive) each time. Besides, the GI50 was > 100 µM (inactive) in the experiment with SK-MEL-5; > 100 µM in the experiment on HCT-15; > 100 µM (inactive) in the experiment on RXF 393; > 100 µM (inactive) in the experiment on OVCAR-5; > 100 µM (inactive) in the experiment on MOLT-4; > 100 µM (inactive) with CCRF-CEM. Also, the GI50 in the experiment on TK-10, in the experiment with OVCAR-8, in the experiment on SN12C and with NCI-H460 was > 100 µM (inactive) in each case.

Regarding `O=C1Sc2ccccc2C(=O)N2CSCC12` (stereo not drawn), the GI50 in the experiment with Malme-3M, in the experiment with SNB-19, with HL-60, in the experiment on COLO 205, in the experiment on HOP-92 and with M14 was > 100 µM (inactive) throughout. Further, the GI50 in the experiment on SK-MEL-5, in the experiment with RXF 393, in the experiment with MOLT-4, in the experiment on RPMI-8226, in the experiment on CCRF-CEM and in the experiment with TK-10 was > 100 µM (inactive) throughout. The GI50 in the experiment with OVCAR-8, with SN12C and in the experiment with NCI-H460 was > 100 µM (inactive) throughout.

Values taken from ChEMBL document CHEMBL1201862, “PubChem BioAssay data set” (2004).
